Test results reported in patent US7550480B2, “Compounds” (SmithKline Beecham Corporation, priority 2003, dated 2009).
Values joined by “and” are separate entries in the source; they are usually repeats but may differ in a detail not shown here. Equal values may be shown once.

Experiments:
CSBP/p38 [1] = biological target: T1, CSBP/p38 (Homo sapiens, UniProt Q16539); test: Fluorescence Anisotropy Kinase Binding Assay; conditions: pKi is the negative log of the Ki; p38 enzyme 12 nM, fluorescent ligand 5 nM
Experimental: The concentration of kinase enzyme should preferably be ≧1×Kf. The concentration of fluorescent ligand required will depend on the instrumentation used, and the fluorescent and physicochemical properties. The concentration used must be lower than the concentration of kinase enzyme, and preferably less than half the kinase enzyme concentration.
All components dissolved in Buffer of final composition 62.5 mM HEPES, pH 7.5, 1.25 mM CHAPS, 1.25 mM […], 12.5 mM MgCl2 3.3% DMSO.
p38 Enzyme concentration: 12 nM
Fluorescent ligand concentration: 5 nM
Test compound concentration: 0.1 nM-100 uM
Components incubated in 30 ul final volume in NUNC 384 well black microtitre plate until equilibrium reached (5-30 mins)
Fluorescence anisotropy read in LJL Acquest.
Definitions: Ki=dissociation constant for inhibitor binding
• Kf=dissociation constant for fluorescent ligand binding The fluorescent ligand is the following compound:
[drawing 13] which is derived from 5-[2-(4-aminomethylphenyl)-5-pyridin-4-yl-1H-imidazol-4-yl]-2-chlorophenol and rhodamine green.

CSBP/p38 [2] = biological target: T1, CSBP/p38; test: CSBP/p38 Kinase Assay (32P transfer to EGFR-derived T669 peptide); format: biochemical; design: made in house; host or cells: yeast; conditions: for IC50: 0.17 mM ATP, 0.67 mM T669 peptide, 2-4 nM yeast-expressed activated p38, 25 min at 37° C.; for active as inhibitors of the CSBP kinase: statement in words, assay not given
Experimental: This assay measures the CSBP/p38-catalyzed transfer of ^32P from [a-^32P]ATP to threonine residue in an epidermal growth factor receptor (EGFR)-derived peptide (T669) with the following sequence: […] (SEQ ID 1) (residues 661-681). (See Gallagher et al., “Regulation of Stress Induced Cytokine Production by Pyridinyl Imidazoles: Inhibition of CSBP Kinase”, BioOrganic & Medicinal Chemistry, 1997, 5, 49-64).
Reactions are carried in round bottom 96 well plate (from Corning) in a […] volume. […] Filters are washed with 75 mM phosphoric acids, and incorporated 32P was quantified using beta scintillation counter. Under these conditions, the specific activity of p38 will be determined and is generally 400-450 pmol/pmol enzyme, and the activity being linear for up to 2 hours of incubation. The kinase activity values are obtained after subtracting values generated in the absence of substrate which were 10-15% of total values.

T1 sequence (Q16539 whole entry): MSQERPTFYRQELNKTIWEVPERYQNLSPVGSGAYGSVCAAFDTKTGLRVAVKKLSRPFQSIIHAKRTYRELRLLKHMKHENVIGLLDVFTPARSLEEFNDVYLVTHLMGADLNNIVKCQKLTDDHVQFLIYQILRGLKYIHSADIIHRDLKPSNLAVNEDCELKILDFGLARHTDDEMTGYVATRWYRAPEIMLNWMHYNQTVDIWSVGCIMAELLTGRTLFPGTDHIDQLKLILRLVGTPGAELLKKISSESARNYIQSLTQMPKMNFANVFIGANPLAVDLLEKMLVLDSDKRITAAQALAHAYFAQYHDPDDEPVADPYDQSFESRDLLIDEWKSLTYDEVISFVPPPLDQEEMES

Ki (CSBP/p38 [1])	IC50 (CSBP/p38 [2]) [nM]	active as inhibitors of the CSBP kinase (CSBP/p38 [2])	SMILES
20 nM and 12.6 nM	–	–	COc1cc2c(ccc(=O)n2-c2ccccc2Cl)c(-c2ccccc2Cl)c1Br (single isomer, unassigned) [Example 17, 6-bromo-1,5-bis(2-chlorophenyl)-7-(methyloxy)-2(1H)-quinolinone]
–	5000	active	Cn1c(=O)ccc2c(-c3ccccc3)nccc21 [Example 11, 1-Methyl-5-phenyl-1H-[1,6]naphthyridin-2-one]
–	13400	active	O=c1ccc2c(-c3ccccc3)nccc2[nH]1 [Example 12, 5-Phenyl-1H-[1,6]naphthyridin-2-one]

More lines, now with the values behind:

SMILES	Ki (CSBP/p38 [1])	IC50 (CSBP/p38 [2]) [nM]	active as inhibitors of the CSBP kinase (CSBP/p38 [2])
O=c1ccc2c(-c3ccccc3)nccc2n1Cc1ccccc1 [Example 9, 1-Benzyl-5-phenyl-1H-[1,6]naphthyridin-2-one]	–	60	–
O=c1ccc2c(-c3ccccc3)nccc2n1-c1ccccc1 [Example 10, 1,5-Diphenyl-1H-[1,6]naphthyridin-2-one]	–	200	–
